In patent publication US6833372B2, “Non-peptide GnRH agents, Pharmaceutical compositions, and methods for their use” (Pfizer, Inc., priority 2002, dated 2004):
“And” between values parts separate entries of the source, which are not always exact repeats. Equal values may be shown once.

What was measured:
rat GnRH receptor = biological target: T1, rat GnRH receptor (Rattus norvegicus, UniProt P30969); assay: Radioligand binding: inhibition of 125I-GnRH-A binding to rat GnRH receptor (rat pituitary membranes); conditions: read-out: Ki (nM), Inhibition Binding of 125I-GnRH-A to GnRH Receptors
T1 construct: or rat pituitaries (Pel Freez Biologicals, Rogers, Ark.) were homogenized; tissue Pel Freez Biologicals; host or cells: rat pituitaries (membrane preparation)
T1 sequence (P30969 1-327): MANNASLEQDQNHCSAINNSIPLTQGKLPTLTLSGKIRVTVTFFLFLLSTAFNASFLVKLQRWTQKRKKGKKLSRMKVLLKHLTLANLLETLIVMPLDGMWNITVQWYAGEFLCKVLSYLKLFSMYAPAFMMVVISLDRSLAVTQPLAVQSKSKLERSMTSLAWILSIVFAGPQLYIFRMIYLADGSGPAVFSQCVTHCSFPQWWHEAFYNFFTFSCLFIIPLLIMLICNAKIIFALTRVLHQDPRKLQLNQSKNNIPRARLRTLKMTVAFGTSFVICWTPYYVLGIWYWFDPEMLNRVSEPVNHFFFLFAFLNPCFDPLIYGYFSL
Protocol: HEK 293 cells containing mouse or human receptors, or rat pituitaries (Pel Freez Biologicals, Rogers, Ark.) were homogenized in buffer A containing: 50 mM Tris (pH 7.4), 0.32 M sucrose, 2 mM EGTA, 1 mM PMSF, 5 μg/ml aprotinen, 5 μg/ml Pepstatin A, and 1 μg/ml leupeptin. Homogenized cells were centrifuged at 4° C. at 20,000×g for 25 minutes, re-suspended in buffer A and re-centrifuged at 4° C. at 20,000×g for an additional 25 minutes. Total membrane protein was determined with a BCA kit (Pierce, Rockford, Ill.). Membranes were stored at −70° C. at a final membrane protein concentration of approximately 5 mg/ml.
The radioiodinated agonist analog of GnRH, [des-Gly^10,D-Ala^6]GnRH ethylamide (^125I-GnRH-A), was used as the radioligand. […] The reaction mixture was vortexed and incubated for 1 minute at room temperature. After one minute, the mixture was vortexed and allowed to incubate for an additional minute. 2 ml of 0.5 M acetic acid/1% BSA was added to the reaction tube and the mixture was added to a C18 Sep-Pak cartridge. The cartridge was washed with subsequent washes of 5 ml H2O and 5 ml 0.5 M acetic acid and then eluted with 5×1 ml of 60% CH3CN/40% 0.5 M acetic acid. The eluate was diluted with 3× volume of HPLC buffer A (0.1% TFA in H2O) and loaded onto a C18 column. The iodinated product was eluted over 20-25 min with a gradient of 25-100% CH3CN containing 0.1% TFA. The radioactive fractions (750 μl/fraction) were collected into clean polypropylene tubes containing 100 μl of 10% BSA. Fractions were assessed for biological activity by radioligand binding. Specific activity of the radioligand was approximately 2200 Ci/mmol.
Membranes were diluted to 0.01-0.5 mg/ml (depending upon the species of receptor) with assay buffer containing 50 mM HEPES (pH 7.4), 1 mM EDTA, 2.5 mM MgCl2, and 0.1% BSA. Membranes (diluted to utilize similar receptor numbers between assays) were incubated with approximately 0.04-0.06 nM ^125I-GnRH-A in the presence or absence of competing agents (0.1-10,000 nM) in a total volume of 200 μl in 96-well polypropylene plates for 1 hour at room temperature. Assays were stopped by rapid filtration onto 96-well GF/C filters soaked in 0.1% polyethylenimine (PEI) utilizing a Packard 96-well cell harvester. Filters were washed three times with ice-cold PBS (50 mM NaPO4, 0.9% NaCl, 2 mM MgCl2, and 0.02% NaN3, pH 7.4). 35 μl of scintillation cocktail was added to each filter well and filters were counted on a Packard Topcount. Control dose-response curves were generated to GnRH (0.1 nM-100 nM) in each competition binding experiment. Ki values were calculated from IC50 values according to Cheng et al., Biochemical Pharmacol. 22: 3099-3108, 1973. [formula]

[1] = In vitro metabolism: disappearance of parent compound in rat liver microsomes (male, female); assay type: in vitro ADME; conditions: 5 uM compound, 30 minutes 37° C.; for Fem. Rat (FR) % rem. 30′: female rat liver microsomes; for Male Rat (MR) % rem. 30′: male rat liver microsomes
Protocol: (§1) Human, rat, dog, and monkey liver microsomes were isolated by differential centrifugation. Specimens of human liver were obtained from the International Institute for the Advancement of Medicine (Scranton, Pa.). The disappearance of the parent compound was studied in a mixture containing 5 uM compound, 0.5 mg/ml microsomal protein, and 2 mM NADPH in 50 mM K phosphate buffer, pH 7.4. Samples were incubated for 30 minutes at 37° C. The reaction was terminated by the addition of acetonitrile and compounds analyzed by LC-MS as described above.

[2] = In vitro metabolism: disappearance of parent compound in human liver microsomes; assay type: in vitro ADME; conditions: 5 uM compound, 0.5 mg/ml protein, 2 mM NADPH, 30 minutes 37° C.
Protocol: as §1

human GnRH receptors = biological target: T2, human GnRH receptors (Homo sapiens, UniProt P30968); assay: Radioligand binding: inhibition of 125I-GnRH-A binding to human GnRH receptor membranes; conditions: HEK 293 cell membranes
T2 construct: expressed in transfected cells; host or cells: HEK 293 cells, stably transfected; membranes
T2 sequence (P30968 1-328): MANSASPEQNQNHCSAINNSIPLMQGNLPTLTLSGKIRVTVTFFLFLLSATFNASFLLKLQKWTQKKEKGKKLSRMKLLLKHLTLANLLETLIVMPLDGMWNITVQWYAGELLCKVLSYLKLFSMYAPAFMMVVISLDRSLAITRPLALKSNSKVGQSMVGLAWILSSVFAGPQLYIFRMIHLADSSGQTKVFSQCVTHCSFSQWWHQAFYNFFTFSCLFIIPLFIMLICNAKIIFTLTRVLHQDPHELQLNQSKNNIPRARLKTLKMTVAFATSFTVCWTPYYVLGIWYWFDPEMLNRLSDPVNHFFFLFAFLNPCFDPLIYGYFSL
Procedure, shortened: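 Membranes from rat pituitaries, or HEK 293 cells stably expressing mouse or human receptor, incubated 1 hour at room temperature with ~0.04-0.06 nM radioligand (HEPES pH 7.4, EDTA, MgCl2, BSA) and competitor at 0.1-10,000 nM. Bound ligand collected by GF/C filtration and counted; Ki derived from IC50 by Cheng-Prusoff.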

[3] = In vitro metabolism: disappearance of parent compound in monkey liver microsomes; assay type: in vitro ADME; conditions: 5 uM compound, 30 minutes 37° C.
Protocol: as §1

[4] = In vitro metabolism: disappearance of parent compound in dog liver microsomes; assay type: in vitro ADME; conditions: 5 uM compound, 30 minutes 37° C.
Protocol: as §1

Row | SMILES | Ki (rat GnRH receptor) | Fem. Rat (FR) % rem. 30′ [1] | Human % rem. 30′ [2] | Ki (human GnRH receptors) | Monkey % rem. [3] | Male Rat (MR) % rem. 30′ [1] | Dog % rem. 30′ [4]
1 | COc1nc(NCCN(C)C(=O)c2ccc(Cc3cc4c(cc3C)C(C)(C)OC4(C)C)o2)nc(OC)c1NC(=O)c1ccc(Cc2cc3c(cc2C)C(C)(C)OC3(C)C)o1 [Example D2] | 11 nM | 84% and 82% | 76% and 83% | 14 nM | – | – | –
2 | COc1nc(NCCN2CCOCC2)nc(OC)c1NC(=O)c1ccc(Cc2cc3c(cc2C)C(C)(C)OC3(C)C)o1 [Example D4, N-{4,6-dimethoxy-2-[(2-morpholin-4-ylethyl)amino]pyrimidin-5-yl}-5-[(1,1,3,3,6-pentamethyl-1,3-dihydro-2-benzofuran-5-yl)methyl]-2-furamide] | 4.1 nM | 76% | 83% | 6 nM | 2% | 38% | 34%
3 | COc1nc(NCCCN(C)C)nc(OC)c1NC(=O)c1ccc(Cc2c(C)cc(C)c3c2OCC3(C)C)o1 [Example H4, N-(2-{[3-(Dimethylamino)propyl]amino}-4,6-dimethoxypyrimidin-5-yl)-5-[(3,3,4,6-tetramethyl-2,3-dihydro-1-benzofuran-7-yl)methyl]-2-furamide] | 16 nM | – | – | 13 nM | – | – | –
4 | COc1nc(NCCCN2CCN(C)CC2)nc(OC)c1NC(=O)c1ccc(Cc2c(C)cc(C)c3c2OCC3(C)C)o1 [Example H5] | 8.2 nM | – | – | 11 nM | – | – | –
5 | COc1nc(NCCCN2CCOCC2)nc(OC)c1NC(=O)c1ccc(Cc2c(C)cc(C)c3c2OCC3(C)C)o1 [Example H6, N-{4,6-Dimethoxy-2-[(3-morpholin-4-ylpropyl)amino]-pyrimidin-5-yl}-5-[(3,3,4,6-tetramethyl-2,3-dihydro-1-benzofuran-7-yl)methyl]-2-furamide] | 12 nM | – | – | 12 nM | – | – | –
6 | COc1nc(NCCCN2CCOCC2)nc(OC)c1NC(=O)c1ccc(Cc2c(C)cc3c(c2C)C(C)(C)CCO3)o1 [Example I1, N-{4,6-Dimethoxy-2-[(3-morpholin-4-ylpropyl)amino]pyrimidin-5-yl}-5-[(4,4,5,7-tetramethyl-3,4-dihydro-2H-chromen-6-yl)methyl]-2-furamide] | 26 nM | – | – | 27 nM | – | – | –
7 | COc1nc(NCCCN2CCN(C)CC2)nc(OC)c1NC(=O)c1ccc(Cc2c(C)cc3c(c2C)C(C)(C)CCO3)o1 [Example I2, N-(4,6-Dimethoxy-2-{[3-(4-methylpiperazin-1-yl)propyl]amino}pyrimidin-5-yl)-5-[(4,4,5,7-tetramethyl-3,4-dihydro-2H-chromen-6-yl)methyl]-2-furamide] | 16 nM | – | – | 24 nM | – | – | –
8 | COc1nc(NCCCN(C)C)nc(OC)c1NC(=O)c1ccc(Cc2c(C)cc3c(c2C)C(C)(C)CCO3)o1 [Example I3, N-(2-{[3-(Dimethylamino)propyl]amino}-4,6-dimethoxypyrimidin-5-yl)-5-[(4,4,5,7-tetramethyl-3,4-dihydro-2H-chromen-6-yl)methyl]-2-furamide] | 22 nM | – | – | 36 nM | – | – | –

Molecules with a lower Ki (rat GnRH receptor), results first:

Row | Ki (rat GnRH receptor) | Fem. Rat (FR) % rem. 30′ [1] | Human % rem. 30′ [2] | Ki (human GnRH receptors) | Monkey % rem. [3] | Male Rat (MR) % rem. 30′ [1] | Dog % rem. 30′ [4] | SMILES
9 | 0.86 nM | 90% | 77% | 1.2 nM | 8% | 74% | 77% | COc1nc(NCCN2CCCCC2)nc(OC)c1NC(=O)c1ccc(Cc2cc3c(cc2C)C(C)(C)OC3(C)C)o1 [Example D6, N-{4,6-Dimethoxy-2-[(2-piperidin-1-ylethyl)amino]pyrimidin-5-yl}-5-[(1,1,3,3,6-pentamethyl-1,3-dihydro-2-benzofuran-5-yl)methyl]-2-furamide]
10 | 2.6 nM | 79% | 77% | 7.3 nM | 28% | 66% | 66% | COc1nc(NCCN(C)C)nc(OC)c1NC(=O)c1ccc(Cc2cc3c(cc2C)C(C)(C)OC3(C)C)o1 [Example D10, N-(2-{[2-(Dimethylamino)ethyl]amino}-4,6-dimethoxypyrimidin-5-yl)-5-[(1,1,3,3,6-pentamethyl-1,3-dihydro-2-benzofuran-5-yl)methyl]-2-furamide]
11 | 0.5 nM | 56% | 62% | 1.1 nM | 20% | 42% | 56% | COc1nc(NCCCCN(C)C)nc(OC)c1NC(=O)c1ccc(Cc2cc3c(cc2C)C(C)(C)OC3(C)C)o1 [Example D11, N-(2-{[4-(Dimethylamino)butyl]amino}-4,6-dimethoxy-pyrimidin-5-yl)-5-[(1,1,3,3,6-pentamethyl-1,3-dihydro-2-benzofuran-5-yl)methyl]-2-furamide]
12 | 0.32 nM | – | – | 1 nM | – | – | – | CNCCCNc1nc(OC)c(NC(=O)c2ccc(Cc3cc4c(cc3C)C(C)(C)OC4(C)C)o2)c(OC)n1 [Example D60, N-(4,6-Dimethoxy-2-{[3-(methylamino)propyl]amino}-5-pyrimidinyl)-5-[(1,1,3,3,6-pentamethyl-1,3-dihydro-2-benzofuran-5-yl)methyl]-2-furamide]
13 | 2.6 nM | – | – | 4 nM | – | – | – | COc1nc(NCc2c(F)cccc2F)nc(OC)c1NC(=O)c1ccc(Cc2cc3c(cc2C)C(C)(C)OC3(C)C)o1 [Example D73, N-{2-[(2,6-difluorobenzyl)amino]-4,6-dimethoxypyrimidin-5-yl}-5-[(1,1,3,3,6-pentamethyl-1,3-dihydro-2-benzofuran-5-yl)methyl]-2-furamide]
14 | 1.1 nM | – | – | 3 nM | – | – | – | COCCNc1nc(OC)c(NC(=O)c2ccc(Cc3cc4c(cc3C)C(C)(C)OC4(C)C)o2)c(OC)n1 [Example D74]
